From patent US4115385A, “Antibacterial 3-(5-tetrazolyl) penam compounds” (Pfizer Inc., priority 1977, dated 1978)
Converted amounts (≈) assume the structure as drawn.

tested on: Streptococcus pyogenes; test: In vitro minimum inhibitory concentration (MIC) vs. Strep. pyogenes; format: cell-based; conditions: Streptococcus pyogenes, read-out: MIC vs. Strep. pyogenes
Description: The antibacterial penam compounds of the instant invention show activity against a wide variety of gram-positive and gram-negative bacteria. […] The broth is inoculated with the bacterial culture, and with the test antibiotic, and then it is incubated overnight. On the next day, the test is read visually. The minimum inhibitory concentration (MIC) is the lowest concentration of antibiotic which prevents turbidity, i.e., which prevents growth of the microorganism. In vitro activities of several of the penam compounds of the invention are presented later in this specification.
In Table II, the minimum inhibitory concentrations (MIC's) of compounds of formula I, wherein R^2 is hydrogen, against a strain of Streptococcus pyogenes, are reported; and in Table III, minimum inhibitory concentrations of compounds of formula I, wherein R^2 is hydrogen, against a strain of Staphylococcus aureus, are presented. Because of the tautomeric nature of such tetrazole derivatives, referred to hereinbefore,each of the preparations tested also contains some of the corresponding compound of formula II, wherein R^3 is hydrogen.

Compound | MIC [µg/mL]
CNC(=O)NCC(=O)N[C@@H](C(=O)N[C@@H]1C(=O)N2[C@@H]1SC(C)(C)[C@@H]2c1nnn[nH]1)c1ccccc1 | < 0.1
CC1(C)S[C@@H]2[C@H](NC(=O)[C@H](NC(=O)NC(=O)Cc3ccccc3)c3ccccc3)C(=O)N2[C@H]1c1nn[nH]n1 | < 0.1
CC1(C)S[C@@H]2[C@H](NC(=O)Cc3ccccc3OCCN)C(=O)N2[C@H]1c1nn[nH]n1 [2-(o-[2-aminoethoxy]phenyl)acetyl, 6-(2-[2-(2-Aminoethoxy)phenyl]acetamido)-2,2-dimethyl-3-(5-tetrazolyl)penam] | < 0.1
CC(=N)NCC(=O)N[C@@H]1C(=O)N2[C@@H]1SC(C)(C)[C@@H]2c1nnn[nH]1 [2-(acetamidino)acetyl] | < 0.1
Cc1ccc(NC(=O)N[C@@H](C(=O)N[C@@H]2C(=O)N3[C@@H]2SC(C)(C)[C@@H]3c2nnn[nH]2)c2ccccc2)cc1 [D-2-(3-[p-tolyl]ureido)-2-phenylacetyl] | < 0.1
CC1(C)S[C@@H]2[C@H](NC(=O)[C@H](NC(=O)CCNC(=O)Nc3ccccc3)c3ccccc3)C(=O)N2[C@H]1c1nnn[nH]1 | < 0.1
CC1(C)S[C@@H]2[C@H](NC(=O)Cc3ccc(CN)s3)C(=O)N2[C@H]1c1nnn[nH]1 [2-(5-aminomethyl-2-thienyl)-acetyl, 6-(2-[5-Aminomethyl-2-thienyl]acetamido)-2,2-dimethyl-3-(5-tetrazolyl)penam] | ≤ 0.1
CC1(C)S[C@@H]2[C@H](NC(=O)[C@H](N)c3ccc(O)c(Cl)c3)C(=O)N2[C@H]1c1nnn[nH]1 [6-(D-2-amino-2-[3-chloro-4-hydroxyphenyl]acetamido)-2,2-dimethyl-3-(5-tetrazolyl)penam] | 0.1 (≈ 0.236 µM)
CC1(C)S[C@@H]2[C@H](NC(=O)[C@H](NC(=O)CNC(=O)NC(=N)Cc3ccc(Cl)cc3)c3ccccc3)C(=O)N2[C@H]1c1nnn[nH]1 | < 0.1
CC1(C)S[C@@H]2[C@H](NC(=O)Cc3ccc(CN)cc3)C(=O)N2[C@H]1c1nnn[nH]1 [2-(4-aminomethylphenyl)acetyl, 6-(2-[4-Aminomethylphenyl]acetamido)-2,2-dimethyl-3-(5-tetrazolyl)penam] | < 0.1
CC1(C)S[C@@H]2[C@H](NC(=O)[C@H](NC(=O)CNC(=N)N)c3ccccc3)C(=O)N2[C@H]1c1nn[nH]n1 | < 0.1
CC1(C)S[C@@H]2[C@H](NC(=O)[C@H](NC(=O)NC(=O)C34CC5CC(CC(C5)C3)C4)c3ccccc3)C(=O)N2[C@H]1c1nn[nH]n1 | < 0.1
CC1(C)S[C@@H]2[C@H](NC(=O)[C@H](NC(=O)CNC(=N)c3ccncc3)c3ccc(O)cc3)C(=O)N2[C@H]1c1nnn[nH]1 [6-(D-2-[2-(4-Pyridinecarboxamidino)acetamido]-2-(p-hydroxyphenyl]acetamido)-2,2-dimethyl-3-(5-tetrazolyl)penam] | < 0.1
CCOc1ccc2ccccc2c1C(=O)N[C@@H]1C(=O)N2[C@@H]1SC(C)(C)[C@@H]2c1nnn[nH]1 [2-ethoxy-1-naphthoyl, 6-(2-Ethoxy-1-naphthamido)-2,2-dimethyl-3-(5-tetrazolyl)penam] | < 0.1
CCNC(=N)NC(=O)NCC(=O)N[C@@H](C(=O)N[C@@H]1C(=O)N2[C@@H]1SC(C)(C)[C@@H]2c1nn[nH]n1)c1ccccc1 | < 0.1
CC1(C)S[C@@H]2[C@H](NC(=O)CNC(=O)NC(=N)c3ccccc3)C(=O)N2[C@H]1c1nnn[nH]1 [2-(3-[benzimidoyl]ureido)-acetyl] | < 0.1
CC1(C)S[C@@H]2[C@H](NC(=O)[C@H](NC(=O)CNC(=N)c3ccncc3)c3ccccc3)C(=O)N2[C@H]1c1nnn[nH]1 [6-(D-2-[2-(4-pyridinecarboxamidino)acetamido]-2-phenylacetamido)-2,2-dimethyl-3-(5-tetrazolyl)penam] | < 0.1
CC1(C)S[C@@H]2[C@H](NC(=O)CNC(=N)c3ccncc3)C(=O)N2[C@H]1c1nnn[nH]1 [2-(4-pyridinecarboxamidino)acetyl] | < 0.1
CC1(C)S[C@@H]2[C@H](NC(=O)[C@H](NC(=O)CNC(=O)Nc3ccccc3)c3ccccc3)C(=O)N2[C@H]1c1nnn[nH]1 | < 0.1
CC1(C)S[C@@H]2[C@H](NC(=O)[C@H](NC(=O)C(=Cc3ccc(Cl)cc3)C(=O)O)c3ccccc3)C(=O)N2[C@H]1c1nnn[nH]1 [6-(D-2-[2-carboxy-2(p-chlorophenyl)acrylamido]-2-phenylacetamido)-2,2-dimethyl-3-(5-tetrazolyl)penam] | < 0.1
CC1(C)S[C@@H]2[C@H](NC(=O)CNC(=N)c3cccs3)C(=O)N2[C@H]1c1nnn[nH]1 [2-(2-thiophenecarboxamidino)acetyl] | < 0.1
CC1(C)S[C@@H]2[C@H](NC(=O)[C@H](NC(=O)CN)c3ccccc3)C(=O)N2[C@H]1c1nn[nH]n1 [D-2-(2-aminoacetamido)-2-phenylacetyl, 6-(D-2-[2-Aminoacetamido]-2-phenylacetamido)-2,2-dimethyl-3-(5-tetrazolyl)penam] | < 0.1
CC1(C)S[C@@H]2[C@H](NC(=O)[C@H](NC(=O)CCNC(=O)c3ccc(Cl)cc3)c3ccccc3)C(=O)N2[C@H]1c1nnn[nH]1 | < 0.1
CC1(C)S[C@@H]2[C@H](NC(=O)[C@H](NC(=O)NC(N)=O)c3ccccc3)C(=O)N2[C@H]1c1nnn[nH]1 [D-2-allophanamido-2-phenylacetyl, 6-(D-2-Allophanamido-2-phenylacetamido)-2,2-dimethyl-3-(5-tetrazolyl)penam] | < 0.1
CC1(C)S[C@@H]2[C@H](NC(=O)[C@H](NC(=O)c3ccc(N)cc3)c3ccccc3)C(=O)N2[C@H]1c1nn[nH]n1 [D-2-(4-aminobenzamido)-2-phenylacetyl, 6-(D-2-[4-Aminobenzamido]-2-phenylacetamido)-2,2-dimethyl-3-(5-tetrazolyl)penam] | < 0.1

same assay, conditions: Streptococcus pyogenes; Table II; two-fold serial dilution, Brain-Heart Infusion broth, overnight; read-out: MIC vs. Strep. pyogenes

MIC [µg/mL] | Compound
0.39 (≈ 0.838 µM) | CCS(=O)(=O)N[C@@H](C(=O)N[C@@H]1C(=O)N2[C@@H]1SC(C)(C)[C@@H]2c1nn[nH]n1)c1ccccc1 [D-2-(ethanesulfonamido)-2-phenylacetyl]
0.004 (≈ 0.00794 µM) | CC1(C)S[C@@H]2[C@H](NC(=O)[C@@H](c3ccccc3)N3C(=O)c4ccccc4C3=O)C(=O)N2[C@H]1c1nnn[nH]1 [D-2-phthalimido-2-phenylacetyl, 6-(D-2-Phthalimido-2-phenylacetamido)-2,2-dimethyl-3-(5-tetrazolyl)penam]
1.56 (≈ 4.79 µM) | CC(=O)NC(=O)N[C@@H]1C(=O)N2[C@@H]1SC(C)(C)[C@@H]2c1nn[nH]n1 [N-acetylcarbomoyl]
0.2 (≈ 0.355 µM) | CC1(C)S[C@@H]2[C@H](NC(=O)[C@H](NS(=O)(=O)c3ccc4ccccc4c3)c3ccccc3)C(=O)N2[C@H]1c1nn[nH]n1
0.39 (≈ 0.879 µM) | CCCC(=O)N[C@@H](C(=O)N[C@@H]1C(=O)N2[C@@H]1SC(C)(C)[C@@H]2c1nnn[nH]1)c1ccccc1 [D-2-(butyramido)-2-phenylacetyl]
1.56 (≈ 4.13 µM) | CC1(C)S[C@@H]2[C@H](NC(=O)NC(=O)c3ccco3)C(=O)N2[C@H]1c1nn[nH]n1 [N-(2-furoyl)carbamoyl]
6.25 (≈ 14 µM) | CCOC(=O)N[C@@H](C(=O)N[C@@H]1C(=O)N2[C@@H]1SC(C)(C)[C@@H]2c1nnn[nH]1)c1ccccc1 [D-2-(ethoxycarbonylamino)-2-phenylacetyl]
0.2 (≈ 0.494 µM) | COc1cccc(OC)c1C(=O)N[C@@H]1C(=O)N2[C@@H]1SC(C)(C)[C@@H]2c1nnn[nH]1 [2,6-dimethoxybenzoyl, 6-(2,6-dimethoxybenzamido)-2,2-dimethyl-3-(5-tetrazolyl)penam]
0.004 (≈ 0.00765 µM) | CC1(C)S[C@@H]2[C@H](NC(=O)[C@H](NC(=O)c3ccc([N+](=O)[O-])cc3)c3ccccc3)C(=O)N2[C@H]1c1nn[nH]n1 [D-2-(4-nitrobenzamido)-2-phenylacetyl, 6-(D-2-[4-nitrobenzamido]-2-phenylacetamido)-2,2-dimethyl-3-(5-tetrazolyl)penam]
6.25 (≈ 11.2 µM) | CC1(C)S[C@@H]2[C@H](NC(=O)[C@H](NC(=O)CNC(=N)c3cccc(C#N)c3)c3ccccc3)C(=O)N2[C@H]1c1nnn[nH]1
0.004 (≈ 0.00788 µM) | CC1(C)S[C@@H]2[C@H](NC(=O)[C@H](NC(=O)COc3ccccc3)c3ccccc3)C(=O)N2[C@H]1c1nnn[nH]1 [D-2-(2-phenoxyacetamido)-2-phenylacetyl]
12.5 (≈ 27.6 µM) | CC1(C)S[C@@H]2[C@H](NC(=O)[C@H](NS(=O)(=O)O)c3ccccc3)C(=O)N2[C@H]1c1nnn[nH]1 [D-2-sulfoamino-2-phenylacetyl, 6-(D-2-sulfoamino-2-phenylacetamido)-2,2-dimethyl-3-(5-tetrazolyl)penam]
0.39 (≈ 0.91 µM) | Cc1cc(C)cc(C(=N)NCC(=O)N[C@@H]2C(=O)N3[C@@H]2SC(C)(C)[C@@H]3c2nnn[nH]2)c1 [2-(3,5-dimethylbenzamidino)acetyl]
0.004 (≈ 0.00753 µM) | CC1(C)S[C@@H]2[C@H](NC(=O)[C@H](NC(=O)CNC(=O)NC(=N)N)c3ccc(O)cc3)C(=O)N2[C@H]1c1nnn[nH]1 [6-(D-2-[2-(3-[guanyl]ureido)acetamido]-2-[4-hydroxyphenyl]acetamido)-2,2-dimethyl-3-(5-tetrazolyl)penam]
200 (≈ 456 µM) | CC1(C)S[C@@H]2[C@H](NC(=O)C(c3ccccc3)S(=O)(=O)O)C(=O)N2[C@H]1c1nnn[nH]1 (stereo partly drawn) [2-sulfo-2-phenylacetyl, 6-(2-Sulfo-2-phenylacetamido)-2,2-dimethyl-3-(5-tetrazolyl)penam]
< 0.1 | CC1(C)S[C@@H]2[C@H](NC(=O)/C=C\C(N)=O)C(=O)N2[C@H]1c1nnn[nH]1 [3-(carbamoyl)acryloyl, 6-(3-[Carbamoyl]acrylamido)-2,2-dimethyl-3-(5-tetrazolyl)penam]
0.2 (≈ 0.438 µM) | CC1(C)S[C@@H]2[C@H](NC(=O)[C@H](NC(=O)CN=[N+]=[N-])c3ccccc3)C(=O)N2[C@H]1c1nnn[nH]1 [D-2-(2-azicoacetamido)-2-phenylacetyl]
